Reference: patent publication US20040171073A1, “Compounds for modulation of cholesterol transport” (Massachusetts Institute of Technology, priority 2002, published 2004)
“Also recorded” adds a separate entry of the source.

What was measured:
murine SR-BI [1] = biological target: T1, murine SR-BI (Mus musculus, UniProt Q61009); test: Uptake of DiI from DiI-HDL by ldlA[mSR-BI] cells (high throughput screen and concentration dependence); type: cell-based
T1 construct: expressed in transfected cells; host or cells: ldlA-7 (LDL receptor deficient Chinese hamster ovary cells)
T1 sequence (Q61009 1-509): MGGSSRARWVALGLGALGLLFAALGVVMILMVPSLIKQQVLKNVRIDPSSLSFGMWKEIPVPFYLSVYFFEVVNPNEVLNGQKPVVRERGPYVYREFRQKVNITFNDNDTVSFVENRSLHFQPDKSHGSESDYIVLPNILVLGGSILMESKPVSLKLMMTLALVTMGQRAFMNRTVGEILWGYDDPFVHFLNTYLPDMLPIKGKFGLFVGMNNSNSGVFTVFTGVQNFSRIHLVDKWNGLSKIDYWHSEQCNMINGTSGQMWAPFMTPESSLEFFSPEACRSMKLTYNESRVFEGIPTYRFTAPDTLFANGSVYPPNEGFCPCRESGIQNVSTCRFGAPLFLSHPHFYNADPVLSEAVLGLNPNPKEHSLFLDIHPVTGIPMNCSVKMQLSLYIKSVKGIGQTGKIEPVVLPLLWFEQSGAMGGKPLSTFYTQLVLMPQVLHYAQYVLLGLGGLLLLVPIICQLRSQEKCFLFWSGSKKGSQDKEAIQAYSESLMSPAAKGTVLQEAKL

murine SR-BI [2] = biological target: T1, murine SR-BI; test: Uptake of [3H]cholesteryl ether from [3H]CE-HDL by ldlA[mSR-BI] cells; type: cell-based
Procedure: (§1) Cells were pre-incubated with BLTs for 1 hr (or 2.5 hrs for transferrin, EGF and cholera toxin uptake experiments) and all the experiments were performed at 37° C. Detailed characterization of the BLTs and their effects was performed with compounds whose identities and purities were confirmed by LC-MS.
(§2) Assays for the uptake of lipids from DiI-HDL and [^3]CE-HDL, efflux of [^3H]cholesterol from labeled cells, and ^125I-HDL binding were performed as described by Acton et al. Science (1996) January 26;271(5248):518-20; Gu, et al. J Biol. Chem. (2000) September 29;275(39):29993-30001; and Ji, et al., J. Biol. Chem. (1997) 272, 20982-5. In some experiments, values were normalized so that the 100% of control represents activity in the absence of compounds and 0% represents activity determined in the presence of a 40-fold excess of unlabeled HDL or, for Y1-BS1 cells, in the presence of a 1:500 dilution of the KKB-1 blocking antibody (Gu, et al., 2000, generous gift from Karen Kozarsky). The amounts of cell-associated [^3H]cholesteryl ether are expressed as the equivalent amount of [^3H]CE-HDL protein (ng) to permit direct comparison of the relative amounts of ^125I-HDL binding and [^3H]CE uptake.

SR-BI = biological target: T2, SR-BI (Mus musculus, UniProt Q61009); test: Uptake of [3H]CE from [3H]CE-HDL by Y1-BS1 adrenocortical cells; type: cell-based, murine; conditions: inhibition, n=2, read-out: (A) EC50 [^3H]CEt HDL uptake (Y1-BS1 cells)
T2 construct: endogenous in cells; host or cells: Y1-BS1 murine adrenocortical cells (ACTH induced)
T2 sequence (Q61009 1-509): T1 sequence (Q61009 1-509)
Text: Biol. Chem. 273, 26338-48; Gu, et al. (2000) J. Biol. Chem. 275, 29993-30001; Acton, et al. (1994) J. Biol. Chem. 269, 21003-9; Pitas, et al. (1981) Arteriosclerosis 1, 177-85). LDL receptor deficient Chinese hamster ovary cells that express low levels of endogenous SR-BI, ldlA-7 (Kingsley, et al. (1984) Proc. Nat. Acad. Sci. USA 81, 5454-8), ldlA-7 cells stably transfected to express high levels of murine SR-BI (ldlA[mSR-BI])(Acton, et al., 1996), Y1-BS1 murine adrenocortical cells that express high levels of SR-BI after induction with ACTH (Rigotti, et al. (1996) J. Biol. Chem. 271, 33545-9), monkey kidney BS-C1 cells (Kapoor, et al. (2000) Journal of Cell Biology 150, 975-88) and HeLa cells (Temel, et al. (2002) J Biol Chem 8, 8) were maintained as previously described.
as §1, §2

murine SR-BI [3] = biological target: T1, murine SR-BI; test: Efflux of [3H]cholesterol from ldlA[mSR-BI] cells to HDL; type: cell-based; conditions: inhibition of efflux to HDL, mean ± SD, n=3
Procedure: as §1, §2
In addition to mediating selective lipid uptake from HDL, SR-BI can facilitate the efflux of unesterified cholesterol from cells to HDL particles (Jian, et al. (1998) J Biol Chem 273, 5599-606. Ji, et al. (1997) J. Biol. Chem. 272, 20982-5). To determine if the BLTs could inhibit this SR-BI-mediated lipid transport activity, cells were labeled with [^3H]cholesterol and its efflux to unlabeled HDL measured in the presence or absence of the BLTs. (FIG. 2C, table II). Cells were incubated for 3 hrs in the absence (top panels) or presence (bottom panels) of 50 micromolar BLT-1 (MIT 9952-53) and epifluorescence light microscopy was used to monitor the following cellular activities: clathrin-dependent endocytosis of fluorescently labeled transferrin (A,B; HeLa cells) and EGF (C,D; HeLa cells); clathrin-independent endocytosis of fluorescently labeled cholera toxin (E, F; BSC-1 cells), and transport of the temperature sensitive fluorescent membrane protein VSVG^ts045-EGFP from the ER to the cell surface (G,H; BSC-1 cells). In addition, the intracellular distributions of the actin cytoskeleton (visualized with rhodamine labeled phalloidin, I,J; ldlA-[mSRBI] cells) and the tubulin network (visualized with fluorescently labeled antibodies specific to y-tubulin, K,L; BSC-1 cells) were determined. BLT-1 (MIT 9952-53) and the other BLTs (not shown) had no effects on any of these cellular properties or activities.

murine SR-BI [4] = biological target: T1, murine SR-BI; test: 125I-HDL binding to ldlA[mSR-BI] cells
Procedure: as §1, §2
It was initially expected that the BLTs would function by inhibiting HDL binding to SR-BI. However, when cells were incubated with a sub-saturating concentration of either [^3H]CE-HDL or ^125I-labeled HDL (^125I-HDL) (10 μg protein/ml) and increasing amounts of compound (FIG. 5), the decreases in [^3H]CE uptake (solid lines, no symbols, data from FIG. 2B) and [3H]cholesterol efflux (dashed lines, data from FIG. 2C) were accompanied by corresponding increases in ^125I-HDL binding (solid lines, square symbols). The concentration dependence of ^125I-HDL binding was determined in the presence or absence of BLTs at their ICCE95 concentrations (FIG. 6 and Table II).

murine SR-BI [5] = biological target: T1, murine SR-BI; test: Rate of 125I-HDL dissociation from cells; conditions: dissociation of 125I-HDL from ldlA[mSR-BI] cells in presence of BLT; no BLT control 0.11; n=2; read-out: (B) Binding Parameters Koff (converted)
Procedure: The rates of HDL dissociation from cells were determined by incubation of the cells with ^125I-HDL (10 μg protein/ml, 2 hrs, 37° C.) with and without BLTs. The medium was then either replaced with the same medium in which the ^125I-HDL was substituted by a 40-fold excess of unlabeled HDL or a 40-fold excess of unlabeled HDL was added to the labeled incubation medium. The amounts of cell-associated ^125I-HDL were then determined as a function of time. The two methods gave similar results.

HeLa cells = test: Receptor mediated endocytosis of labeled transferrin and EGF, fluorescence microscopy; type: cell-based; conditions: BLTs at ICCE95, 50 micromolar BLT-1, 3 hrs
BSC-1 cells [6] = type: cell-based, monkey; conditions: BLTs at ICCE95, 50 micromolar BLT-1, 3 hrs
BSC-1 cells [7] = type: cell-based, monkey
ldlA[mSR-BI] cells = test: Distribution of actin and tubulin networks, fluorescence microscopy; type: cell-based, Chinese hamster; conditions: BLTs at ICCE95; 50 micromolar BLT-1, 3 hrs

## CCCCCCC1CCC/C1=N\NC(N)=S (stereo not shown) [MIT 9952-53]
Murine SR-BI [1]; Test 1
  ENDOHDL Test 1: 0.53
Murine SR-BI [1]; Test 2
  ENDOHDL Test 2: 0.46
Murine SR-BI [1]; ldlA[mSR-BI] cells, inhibition, mean ± SD, n=3
  EC50: 60 ± 40 nM
Murine SR-BI [1]; ldlA[mSR-BI] cells, listed as BLT-1
  Inhibition of SR-BI-mediated lipid transport / DiI uptake, concentration range in words: low nanomolar concentration range; also recorded: inhibited in the nanomolar range
Murine SR-BI [2]
  ICCE95 concentration (inhibits [3H]CE uptake by 95%): 1 µM
Murine SR-BI [2]; inhibition, mean ± SD, n=6 (n=5 where footnoted), read-out: (A) EC50 [^3H]CEt HDL uptake
  EC50: 110 ± 80 nM
SR-BI
  EC50: 380 nM
Murine SR-BI [3]
  EC50: 150 ± 90 nM
Murine SR-BI [4]; 125I-HDL binding sites in presence of BLT at its ICCE95, no BLT control 100.0 ± 18.4
  (B) Binding Parameters Bmax: 95.8 ± 10.1%
Murine SR-BI [4]; ldlA[mSR-BI] cells
  Effect on HDL binding to SR-BI: enhanced
Murine SR-BI [4]; ldlA[mSR-BI] cells, enhancement of HDL binding, 10 μg protein/ml HDL, mean ± SD, n=3, read-out: (A) EC50 ^1nI-HDL binding
  EC50: 88 ± 50 nM
Murine SR-BI [5]
  koff: 0.001 s⁻¹
HeLa cells
  Uptake and intracellular distribution of labeled transferrin and EGF (clathrin-dependent endocytosis): no effects
BSC-1 cells [6]
  Uptake of labeled cholera toxin (clathrin-independent endocytosis): no effects
BSC-1 cells [7]
  Secretory pathway: transport of VSVGts045-EGFP from ER to cell surface: no effects
ldlA[mSR-BI] cells
  Integrity/distribution of actin and tubulin networks: no effects
